Experimental data: patent US20070082903A1, “Remedy for rheumatoid arthritis” (priority 2003, published 2007)

Tests used:
[1] = repeated administration test on healthy male Japanese (7 days); assay type: in vivo, human
Method: AUC0-24 level of the agent in its repeated administration to humans A repeated administration test on healthy male Japanese of 20 to 40 years old was carried out. Using the SMP-114 tablets and placebo tablets, 80 mg of each of the placebo and SMP-114 was orally administered once a day for 7 days by a placebo controlled double-blind method (8 cases of SMP-114 administration and 2 cases of placebo administration: 10 subjects in total).

[2] = tolerance test by a single administration, healthy male Caucasians; assay type: in vivo, human; details: single oral dose 10, 20, 40, 60, 80, 100, 120 or 140 mg, suspension, fasted
[3] = system: patients with rheumatoid arthritis; experiment: administration to patients with rheumatoid arthritis, ACR criterion evaluation at 16 weeks; assay type: in vivo, human; details: for improvement rate: SF-36 mental scale / improvement rate: SF-36 physical scale / improvement rate: erythrocyte sedimentation rate / improvement rate: patient's self-assessed physical functions / improvement rate: reduction of swollen joint count / improvement rate: reduction of tender joint count / improvement rate: patient's assessment of pain / improvement rate: patient's global assessment of disease activity / improvement rate: physician's global assessment of disease activity / improvement rate: CRP: 16 weeks vs initial value; for improvement rate: patient's assessment of pain / improvement rate: patient's global assessment of disease activity / improvement rate: physician's global assessment of disease activity: VAS; for improvement rate: CRP: in % (unit assumed)
Description: When 20% or more improvement is observed in the items 1) and 2) and 20% or more improvement is observed in at least three of the five items 3) to 7), the therapeutic effect is rated as “20% improvement on the criterion established by the American College of Rheumatology” (20% improvement on the ACR criterion). • 1) Reduction of tender joint count. • 2) Reduction of swollen joint count. • 3) Patient's global assessment of disease activity. • 4) Physician's global assessment of disease activity. • 5) Patient's assessment of pain. • 6) Patient's self-assessed physical functions. • 7) CRP or erythrocyte sedimentation rate.
Similarly, when 50% or more improvement is observed in the items 1) and 2) and 50% or more improvement is observed in at least three of the five items 3) to 7), the therapeutic effect is rated as “50% improvement on the criterion established by the American College of Rheumatology” (50% improvement on the ACR criterion).
SMP-114 was orally administered once a day after a meal to patients with rheumatoid arthritis who had been treated with 1 to 5 DMARDs other than SMP-114 (to whom these DMARDs seemed to be non-administrable because of their side effects, or for whom these DMARDs seemed to be ineffective or insufficiently effective). As to the dose, a placebo, 40 mg/day, 80 mg/day and 120 mg/day were employed (about 50 cases per group). […] SMP-114 was continuously administered to patients in whom the standard had been reached, until the 24th week while keeping the test blind. Sixteen weeks after the start of the administration, the placebo group, 40 mg/day group, 80 mg/day group and 120 mg/day group were compared with respect to the proportion of patients satisfying the requirement “20% improvement on the criterion established by the American College of Rheumatology”, whereby the efficacy of the SMP-114 was evaluated (in the present example, the following ratings were given on a visual analogue scale (VAS): 3) a patient's global assessment of disease activity, 4) a physician's global assessment of disease activity, and 5) a patient's assessment of pain, on the ACR criterion.).
When the following improvements are observed on the above-mentioned criterion of improvement established by the American College of Rheumatology, it is judged that “50% improvement on the criterion established by the American College of Rheumatology” (50% improvement on the ACR criterion) has been achieved: 50% or more improvement is observed in the items 1) and 2) and 50% or more improvement is observed in at least three of the five items 3) to 7). The efficacy of SMP-114 may be evaluated on the basis of the proportion of patients satisfying the requirement “50% improvement on the criterion established by the American College of Rheumatology”.
The efficacy of SMP-114 may be evaluated on the basis of improvement rates of the above-mentioned rating items on the criterion established by the American College of Rheumatology and QOL measure (SF-36) (Ware, J E. & Sherbourne C D., “The MOS 36-Item Short-Form Health Survey (SF-36); 1. Conceptual 10 Framework and Item Selection.”, Med Care 1981; 18:806). The improvement rates may be expressed as the rates of change calculated on the basis of the difference between values obtained 16 weeks after the start of the administration and initial values obtained before the start of the administration.
Stratification analysis was carried out by employing as an indication the history of treatment with disease modifying antirheumatic drugs (DMARDs) other than SMP-114, i.e., the number of the DMARDs other than SMP-114 which had been used. There are shown below the results of the analysis carried out by dividing patients into patients with rheumatoid arthritis who had been treated with one or two DMARDs other than SMP-114 (group A) and patients with rheumatoid arthritis who had been treated with 3 to 5 DMARDs other than SMP-114 (group B). […]

[4] = system: mice with collagen arthritis; details: cited from earlier work
[5] = 40 mg/day, 16 weeks, erythrocyte sedimentation rate used as item 7)
[6] = 80 mg/day, 16 weeks, erythrocyte sedimentation rate used as item 7)
[7] = 120 mg/day, 16 weeks, erythrocyte sedimentation rate used as item 7)
[8] = total active groups, patient's assessment of pain (VAS) < 67
[9] = total active groups, patient's assessment of pain (VAS) ≧ 67
[10] = total active groups, physician's global assessment (VAS) < 63
[11] = total active groups, physician's global assessment (VAS) ≧ 63

Structure (SMILES): C[C@@H](c1ccc(-c2ccccc2)c(F)c1)c1cc(/N=C(/N)N2CCOCC2)on1 [SMP-114, 3-[(1S)-1-(2-fluorobiphenyl-4-yl)ethyl]-5-{[amino(morpholin-4-yl)methylene]amino}isoxazole]
- accumulative property ([1]; 80 mg once a day for 7 days): no accumulative property
- tolerance ([1]; 80 mg oral once a day for 7 days): satisfactory
- AUC(0-t) ([1]; human, serum, 80 mg oral once a day for 7 days, tablets, read-out: AUC0-24 at a steady state): 15300 ng·h/mL
- side effects undesirable with respect to tolerance [2]: observed at none of the doses
- improvement rate: SF-36 mental scale ([3]; 40 mg/day): 43.7%
- improvement rate: SF-36 physical scale ([3]; 40 mg/day): 33.3%
- improvement rate: erythrocyte sedimentation rate ([3]; 40 mg/day): 3.2%
- improvement rate: patient's self-assessed physical functions ([3]; 40 mg/day): 4.3%
- improvement rate: reduction of swollen joint count ([3]; 40 mg/day): 22.3%
- improvement rate: reduction of tender joint count ([3]; 40 mg/day): 16.0%
- improvement rate: patient's assessment of pain ([3]; 40 mg/day): 17.1%
- improvement rate: patient's global assessment of disease activity ([3]; 40 mg/day): 19.3%
- improvement rate: physician's global assessment of disease activity ([3]; 40 mg/day): 12.7%
- improvement rate: CRP ([3]; 40 mg/day): −12.3
- ACR20 improvement rate ([3]; 40 mg/day, 16 weeks, CRP used as item 7)): 38.2%
- ACR20 improvement rate [3, 5]: 38.2%
- ACR50 improvement rate [3, 5]: 10.9%
- Number of ACR50 responders ([3]; 40 mg/day, 55 patients): 6
- Number of ACR20 responders ([3]; 40 mg/day, 55 patients, CRP used): 21
- Number of ACR20 responders ([3]; 40 mg/day, 55 patients, erythrocyte sedimentation rate used): 21
- improvement rate: SF-36 mental scale ([3]; 80 mg/day): 46.1%
- improvement rate: SF-36 physical scale ([3]; 80 mg/day): 28.8%
- improvement rate: erythrocyte sedimentation rate ([3]; 80 mg/day): 4.0%
- improvement rate: patient's self-assessed physical functions ([3]; 80 mg/day): 10.6%
- improvement rate: reduction of swollen joint count ([3]; 80 mg/day): 18.7%
- improvement rate: reduction of tender joint count ([3]; 80 mg/day): 27.6%
- improvement rate: patient's assessment of pain ([3]; 80 mg/day): 16.5%
- improvement rate: patient's global assessment of disease activity ([3]; 80 mg/day): 20.5%
- improvement rate: physician's global assessment of disease activity ([3]; 80 mg/day): 21.5%
- improvement rate: CRP ([3]; 80 mg/day): −26.4
- ACR20 improvement rate ([3]; 80 mg/day, 16 weeks, CRP used as item 7)): 34.5%
- ACR20 improvement rate [3, 6]: 36.4%
- ACR50 improvement rate [3, 6]: 10.9%
- Number of ACR50 responders ([3]; 80 mg/day, 55 patients): 6
- Number of ACR20 responders ([3]; 80 mg/day, 55 patients, CRP used): 19
- Number of ACR20 responders ([3]; 80 mg/day, 55 patients, erythrocyte sedimentation rate used): 20
- improvement rate: SF-36 mental scale ([3]; 120 mg/day): 44.8%
- improvement rate: SF-36 physical scale ([3]; 120 mg/day): 30.2%
- improvement rate: erythrocyte sedimentation rate ([3]; 120 mg/day): −7.5%
- improvement rate: patient's self-assessed physical functions ([3]; 120 mg/day): −8.7%
- improvement rate: reduction of swollen joint count ([3]; 120 mg/day): 19.7%
- improvement rate: reduction of tender joint count ([3]; 120 mg/day): 22.7%
- improvement rate: patient's assessment of pain ([3]; 120 mg/day): 17.1%
- improvement rate: patient's global assessment of disease activity ([3]; 120 mg/day): 14.2%
- improvement rate: physician's global assessment of disease activity ([3]; 120 mg/day): 24.1%
- improvement rate: CRP ([3]; 120 mg/day): −98.6
- ACR20 improvement rate ([3]; 120 mg/day, 16 weeks, CRP used as item 7)): 37.0%
- ACR20 improvement rate [3, 7]: 37.0%
- ACR50 improvement rate [3, 7]: 13.0%
- Number of ACR50 responders ([3]; 120 mg/day, 54 patients): 7
- Number of ACR20 responders ([3]; 120 mg/day, 54 patients, CRP used): 20
- Number of ACR20 responders ([3]; 120 mg/day, 54 patients, erythrocyte sedimentation rate used): 20
- ACR20 improvement rate ([3]; total active groups (40, 80, 120 mg/day), Group A, DMARDs treatment history = 1-2 drugs): 44%
- ACR20 improvement rate ([3]; total active groups (40, 80, 120 mg/day), Group B, DMARDs treatment history = 3-5 drugs): 32%
- ACR20 responders / cases ([3]; total active groups, Group A, DMARDs treatment history = 1-2 drugs): 32/72
- ACR20 responders / cases ([3]; total active groups, Group B, DMARDs treatment history = 3-5 drugs): 29/92
- ACR20 improvement rate [3, 8]: 50%
- ACR20 responders / cases [3, 8]: 36/72
- ACR20 improvement rate [3, 9]: 27%
- ACR20 responders / cases [3, 9]: 25/92
- ACR20 improvement rate [3, 10]: 42%
- ACR20 responders / cases [3, 10]: 31/74
- ACR20 improvement rate [3, 11]: 33%
- ACR20 responders / cases [3, 11]: 30/90
- antiarthritic effect ([4]; mice with collagen arthritis): antiarthritic effect
- minimum effective amount for antiarthritic effect ([4]; once-a-day oral administration): 5 mg/kg
